pIC50: −log10 of the molar value. Calls of active or inactive are those of the source. No cut-off for these calls is given here.
Tests used:
HCT-116 [1] = assay: Antiproliferative activity against human HCT-116 cells assessed as reduction in cell viability at 5 uM measured after 48 hrs by MTT assay; format: functional, cell-based
HCT-116 [2] = assay: Antiproliferative activity against human HCT-116 cells assessed as reduction in cell viability measured after 48 hrs by MTT assay; format: functional, cell-based; conditions: HCT-116, 48 h
[3] = Antiproliferative activity against human PBMC cells assessed as reduction in cell viability measured after 48 hrs by MTT assay; format: toxicity, cell-based
SW480 = assay: Antiproliferative activity against human SW480 cells assessed as reduction in cell viability measured after 48 hrs by MTT assay; format: functional, cell-based; conditions: SW480, 48 h
HT-29 = assay: Antiproliferative activity against human HT-29 cells assessed as reduction in cell viability measured after 48 hrs by MTT assay; format: functional, cell-based; conditions: HT-29, 48 h
[4] = Antiproliferative activity against human HS27 cells assessed as reduction in cell viability measured after 48 hrs by MTT assay; format: toxicity, cell-based
HCT-116 [5] = assay: Antiproliferative activity against human HCT-116 cells assessed as reduction in cell viability measured after 48 hrs by BrdU staining based assay; format: functional; conditions: HCT-116, 48 h
HCT-116 [6] = assay: Induction of cell cycle arrest in human HCT-116 cells assessed as accumulation of cells at G2 phase at 2.5 to 5 uM measured after 48 hrs by PI staining based flow cytometry method; format: functional; conditions: dose 2.5-5 µM
HCT-116 [7] = assay: Induction of cell cycle arrest in human HCT-116 cells assessed as upregulation of p53 mRNA expression at 2.5 to 5 uM measured after 24 hrs by qRT-PCR analysis; format: functional, cell-based; conditions: dose 2.5-5 µM
HCT-116 [8] = assay: Induction of cell cycle arrest in human HCT-116 cells assessed as upregulation of p21 mRNA expression at 2.5 to 5 uM measured after 24 hrs by qRT-PCR analysis; format: functional, cell-based; conditions: dose 2.5-5 µM
HCT-116 [9] = assay: Induction of cell cycle arrest in human HCT-116 cells assessed as upregulation of 14-3-3sigma mRNA expression at 2.5 to 5 uM measured after 24 hrs by qRT-PCR analysis; format: functional, cell-based; conditions: dose 2.5-5 µM
HCT-116 [10] = assay: Induction of G2/M phase cell cycle arrest in human HCT-116 cells assessed as decrease in cyclin A2 mRNA expression at 2.5 to 5 uM measured after 24 hrs by qRT-PCR analysis; format: functional, cell-based; conditions: dose 2.5-5 µM
HCT-116 [11] = assay: Induction of cell cycle arrest in human HCT-116 cells assessed as upregulation of p53 protein expression at 2.5 to 5 uM measured for 48 hrs by Western blot analysis; format: functional, cell-based; conditions: dose 2.5-5 µM
HCT-116 [12] = assay: Induction of G2/M phase cell cycle arrest in human HCT-116 cells assessed as decrease in cyclin A2 protein expression at 2.5 to 5 uM measured for 48 hrs by Western blot analysis; format: functional, cell-based; conditions: dose 2.5-5 µM
HCT-116 [13] = assay: Induction of G2/M phase cell cycle arrest in human HCT-116 cells assessed as decrease in CDK1 protein expression at 2.5 to 5 uM measured for 48 hrs by Western blot analysis; format: functional, cell-based; conditions: dose 2.5-5 µM
HCT-116 [14] = assay: Induction of apoptosis in human HCT-116 cells at 5 uM measured for 48 hrs by annexin V/PI staining based analysis; format: functional, cell-based
HCT-116 [15] = assay: Induction of apoptosis in human HCT-116 cells assessed as increase in Bax mRNA expression at 5 uM measured for 48 hrs by qRT-PCR analysis; format: functional, cell-based
HCT-116 [16] = assay: Induction of apoptosis in human HCT-116 cells assessed as decrease in Bcl2 mRNA expression at 5 uM measured for 48 hrs by qRT-PCR analysis; format: functional, cell-based
HCT-116 [17] = assay: Upregulation of SERPINE1 mRNA expression in human HCT-116 cells at 2.5 to 5 uM measured after 24 hrs by qRT-PCR analysis; format: functional, cell-based; conditions: dose 2.5-5 µM
HCT-116 [18] = assay: Downregulation of FAT1 mRNA expression in human HCT-116 cells at 2.5 to 5 uM measured after 24 hrs by qRT-PCR analysis; format: functional, cell-based; conditions: dose 2.5-5 µM
HCT-116 [19] = assay: Downregulation of FAT1 protein expression in human HCT-116 cells measured at 24 to 48 hrs by Western blot analysis; format: functional, cell-based; conditions: dose 0.5-5 µM, time 24-48 hrs
[20] = target: T1, Nuclear factor NF-kappa-B complex (Homo sapiens) (UniProt Q00653+P19838+Q04206); assay: Inhibition of TNFalpha induced-NFkB phosphorylation in human HCT-116 cells at 1 to 5 uM pretreated for 24 hrs followed by TNFalpha induction and measured after 24 hrs by Western blot analysis; format: cell-based; conditions: dose 1-5 µM, time 48.0 hrs
T1 sequence (P19838 whole entry, looked up): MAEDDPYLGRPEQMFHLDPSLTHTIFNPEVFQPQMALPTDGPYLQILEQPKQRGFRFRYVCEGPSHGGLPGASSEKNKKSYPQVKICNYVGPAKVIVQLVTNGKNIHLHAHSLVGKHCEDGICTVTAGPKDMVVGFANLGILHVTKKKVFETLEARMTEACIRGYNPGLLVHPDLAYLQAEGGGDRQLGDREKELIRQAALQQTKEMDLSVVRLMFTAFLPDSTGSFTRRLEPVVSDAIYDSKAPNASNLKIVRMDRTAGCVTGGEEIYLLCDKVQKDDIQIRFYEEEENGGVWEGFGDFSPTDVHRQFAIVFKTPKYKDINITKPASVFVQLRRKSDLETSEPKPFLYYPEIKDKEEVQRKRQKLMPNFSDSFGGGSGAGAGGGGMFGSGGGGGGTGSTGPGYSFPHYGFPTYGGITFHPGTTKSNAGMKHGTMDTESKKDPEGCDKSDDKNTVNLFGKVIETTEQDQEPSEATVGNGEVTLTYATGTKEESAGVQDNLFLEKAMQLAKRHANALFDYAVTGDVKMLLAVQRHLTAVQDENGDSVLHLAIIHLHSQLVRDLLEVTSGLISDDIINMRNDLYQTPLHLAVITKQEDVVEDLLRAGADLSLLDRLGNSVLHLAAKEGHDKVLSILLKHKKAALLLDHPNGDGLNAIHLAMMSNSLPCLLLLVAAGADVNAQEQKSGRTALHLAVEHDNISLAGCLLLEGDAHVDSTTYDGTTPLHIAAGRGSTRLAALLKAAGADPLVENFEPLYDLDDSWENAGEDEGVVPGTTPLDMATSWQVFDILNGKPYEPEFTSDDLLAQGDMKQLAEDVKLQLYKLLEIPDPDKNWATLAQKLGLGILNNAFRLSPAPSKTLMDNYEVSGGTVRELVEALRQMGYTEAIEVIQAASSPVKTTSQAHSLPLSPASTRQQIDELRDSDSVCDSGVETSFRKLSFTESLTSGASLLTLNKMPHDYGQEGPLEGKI
T1 sequence (Q00653 whole entry, looked up): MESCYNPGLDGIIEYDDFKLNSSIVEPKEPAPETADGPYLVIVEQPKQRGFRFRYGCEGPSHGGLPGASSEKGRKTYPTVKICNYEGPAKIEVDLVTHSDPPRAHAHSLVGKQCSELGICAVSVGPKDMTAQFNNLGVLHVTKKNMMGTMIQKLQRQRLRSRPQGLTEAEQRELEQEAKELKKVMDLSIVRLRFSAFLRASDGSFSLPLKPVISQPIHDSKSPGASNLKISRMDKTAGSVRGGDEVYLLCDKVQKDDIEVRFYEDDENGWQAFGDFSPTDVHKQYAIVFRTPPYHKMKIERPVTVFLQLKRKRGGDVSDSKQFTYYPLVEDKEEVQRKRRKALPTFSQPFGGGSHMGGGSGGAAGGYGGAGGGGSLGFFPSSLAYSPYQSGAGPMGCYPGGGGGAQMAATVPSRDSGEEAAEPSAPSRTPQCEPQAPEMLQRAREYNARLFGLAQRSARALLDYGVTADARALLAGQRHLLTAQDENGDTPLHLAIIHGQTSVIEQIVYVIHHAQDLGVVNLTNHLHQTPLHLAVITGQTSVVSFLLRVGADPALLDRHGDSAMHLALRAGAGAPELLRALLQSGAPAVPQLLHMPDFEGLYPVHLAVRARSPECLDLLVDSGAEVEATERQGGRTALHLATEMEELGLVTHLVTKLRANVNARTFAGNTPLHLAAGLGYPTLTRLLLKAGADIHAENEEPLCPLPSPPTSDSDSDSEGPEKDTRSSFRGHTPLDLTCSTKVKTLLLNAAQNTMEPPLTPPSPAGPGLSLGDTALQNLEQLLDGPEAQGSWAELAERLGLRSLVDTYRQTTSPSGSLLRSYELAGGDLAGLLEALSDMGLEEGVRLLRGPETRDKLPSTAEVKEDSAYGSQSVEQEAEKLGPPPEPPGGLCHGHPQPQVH
T1 sequence (Q04206 whole entry, looked up): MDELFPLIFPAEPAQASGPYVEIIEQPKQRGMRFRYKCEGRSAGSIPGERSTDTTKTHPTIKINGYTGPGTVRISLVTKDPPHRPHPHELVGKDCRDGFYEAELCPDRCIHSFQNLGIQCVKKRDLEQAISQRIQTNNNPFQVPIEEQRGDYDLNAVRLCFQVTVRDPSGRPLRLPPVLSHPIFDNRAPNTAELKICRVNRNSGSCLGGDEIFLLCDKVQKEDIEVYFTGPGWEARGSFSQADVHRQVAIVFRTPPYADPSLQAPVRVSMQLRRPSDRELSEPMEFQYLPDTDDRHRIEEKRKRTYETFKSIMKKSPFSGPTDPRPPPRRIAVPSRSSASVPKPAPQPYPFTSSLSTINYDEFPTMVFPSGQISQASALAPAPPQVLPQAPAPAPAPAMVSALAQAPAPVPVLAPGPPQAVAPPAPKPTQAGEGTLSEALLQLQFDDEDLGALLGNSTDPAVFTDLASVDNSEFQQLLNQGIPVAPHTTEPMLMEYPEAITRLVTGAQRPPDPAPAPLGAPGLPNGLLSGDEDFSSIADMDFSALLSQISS

[21] = target: T1, Nuclear factor NF-kappa-B complex (Homo sapiens); assay: Inhibition of TNFalpha induced-NFkB phosphorylation in human HCT-116 cells at 5 uM pretreated for 24 hrs followed by TNFalpha induction and measured after 24 hrs by Western blot analysis; format: cell-based; conditions: time 48.0 hrs
HCT-116 [22] = assay: Downregulation of PDCD4 mRNA expression in human HCT-116 cells by qRT-PCR analysis; format: functional, cell-based; conditions: dose 1-5 µM
[23] = Toxicity in nude mouse xenografted with human HCT-116 cells assessed as effect on body weight at 3 to 4 mg/kg, iv measured for 23 days; format: organism-based; conditions: in vivo, 552 h, dose 3-4 mg/kg, time 23 day
HCT-116 [24] = assay: Antitumor activity against human HCT-116 cells xenografted in iv dosed nude mouse assessed as decrease in tumor volume measured for 23 days; format: functional, organism-based; conditions: dose 3-4 mg/kg, time 23.0 day
HCT-116 [25] = assay: Antitumor activity against human HCT-116 cells xenografted in nude mouse assessed as decrease in tumor volume at 4 mg/kg, iv measured at day 9; format: functional, organism-based; conditions: time 9.0 day
HCT-116 [26] = assay: Antitumor activity against human HCT-116 cells xenografted in nude mouse assessed as decrease in tumor volume at 3 to 4 mg/kg, iv measured for 23 days; format: functional, organism-based; conditions: dose 3-4 mg/kg, time 23.0 day
HCT-116 [27] = assay: Antitumor activity against human HCT-116 cells xenografted in nude mouse assessed as reduction in tumor weight at 3 to 4 mg/kg, iv measured for 23 days; format: functional, organism-based; conditions: dose 3-4 mg/kg, time 23.0 day
HCT-116 [28] = assay: Antitumor activity against human HCT-116 cells xenografted in iv dosed nude mouse model assessed as increase in apoptosis in tumor tissue measured for 23 days by TUNEL staining based analysis; format: functional, organism-based; conditions: dose 3-4 mg/kg, time 23.0 day
HCT-116 [29] = assay: Antitumor activity against human HCT-116 cells xenografted in nude mouse model assessed as reduction in FAT1 expression in tumor tissue at 3 to 4 mg/kg, iv administered for 23 days by IHC analysis; format: functional, organism-based; conditions: dose 3-4 mg/kg, time 23.0 day
HCT-116 [30] = assay: Antitumor activity against human HCT-116 cells xenografted in nude mouse model assessed as reduction in Ki67 expression in tumor tissue at 3 to 4 mg/kg, iv administered for 23 days by […] analysis; format: functional, organism-based; conditions: dose 3-4 mg/kg, time 23.0 day
HCT-116 [31] = assay: Antitumor activity against human HCT-116 cells xenografted in nude mouse model assessed as increase in p53 protein expression in tumor tissue at 3 to 3.5 mg/kg, iv administered for 23 days by Western blot analysis; format: functional, organism-based; conditions: dose 3-3.5 mg/kg, time 23.0 day
[32] = Toxicity in nude mouse xenografted with human HCT-116 cells assessed as body weight loss at 3 to 4 mg/kg, iv measured for 23 days; format: organism-based; conditions: in vivo, 552 h, dose 3-4 mg/kg, time 23 day
[33] = Toxicity in nude mouse xenografted with human HCT-116 cells assessed as change in plasma CK level at 3 to 4 mg/kg, iv measured for 23 days; format: organism-based; conditions: in vivo, 552 h, dose 3-4 mg/kg, time 23 day
[34] = Toxicity in nude mouse xenografted with human HCT-116 cells assessed as change in plasma LDH level at 3 to 4 mg/kg, iv measured for 23 days; format: organism-based; conditions: in vivo, 552 h, dose 3-4 mg/kg, time 23 day
[35] = Toxicity in nude mouse xenografted with human HCT-116 cells assessed as change in plasma AST level at 3 to 4 mg/kg, iv measured for 23 days; format: organism-based; conditions: in vivo, 552 h, dose 3-4 mg/kg, time 23 day
[36] = Toxicity in nude mouse xenografted with human HCT-116 cells assessed as change in plasma ALT level at 3 to 4 mg/kg, iv measured for 23 days; format: organism-based; conditions: in vivo, 552 h, dose 3-4 mg/kg, time 23 day

Q: Which Activity (HCT-116 [1]) does the source give for C=C(C)[C@H]1CC[C@@](C)(O)[C@@H](C2=C(O)[C@@](C)(CC=C(C)C)C(=O)C(C(=O)C(C)C)=C2O)C1 here?
A: Its Activity is “Active”.

Q: What about the pIC50 (HCT-116 [2]) of the same compound?
A: Its pIC50 is 5.36.

Q: And the IC50 at 48 h [3]?
A: Its IC50 at 48 h is > 100 µM.

Q: And the pIC50 (SW480)?
A: Its pIC50 is 4.65.

Q: And the pIC50 (HT-29)?
A: The pIC50 was 4.94.

Q: What about the IC50 at 48 h [4] of the same compound?
A: Its IC50 at 48 h is > 100 µM.

Q: And the pIC50 (HCT-116 [5])?
A: The pIC50 was 5.82.

Q: And the Activity (HCT-116 [6])?
A: The Activity was “Active”.

Q: And the Activity (HCT-116 [7])?
A: The Activity was “Active”.

Q: And the Activity (HCT-116 [8])?
A: The Activity was “Active”.

Q: And the Activity (HCT-116 [9])?
A: Its Activity is “Active”.

Q: What about the Activity (HCT-116 [10]) of the same compound?
A: Its Activity is “Active”.

Q: What about the Activity (HCT-116 [11]) of the same compound?
A: The Activity was “Active”.

Q: What about the Activity (HCT-116 [12]) of the same compound?
A: The Activity was “Active”.

Q: What about the Activity (HCT-116 [13]) of the same compound?
A: Its Activity is “Active”.

Q: What about the Activity (HCT-116 [14]) of the same compound?
A: Its Activity is “Active”.

Q: And the Activity (HCT-116 [15])?
A: The Activity was “Active”.

Q: And the Activity (HCT-116 [16])?
A: Its Activity is “Active”.

Q: What about the Activity (HCT-116 [17]) of the same compound?
A: Its Activity is “Active”.

Q: And the Activity (HCT-116 [18])?
A: Its Activity is “Active”.

Q: What about the Activity (HCT-116 [19]) of the same compound?
A: Its Activity is “Dose-Dependent Effect”.

Q: And the inhibition [20]?
A: The inhibition was “inactive”.

Q: And the inhibition [21]?
A: The inhibition was “Active”.

Q: What about the Activity (HCT-116 [22]) of the same compound?
A: Its Activity is “Dose-Dependent Effect”.

Q: And the Activity [23]?
A: The Activity was “Non-Toxic”.

Q: And the Activity (HCT-116 [24])?
A: The Activity was “Dose-Dependent Effect”.

Q: What about the Activity (HCT-116 [25]) of the same compound?
A: The Activity was “Active”.

Q: And the Activity (HCT-116 [26])?
A: The Activity was “Active”.

Q: What about the Activity (HCT-116 [27]) of the same compound?
A: Its Activity is “Active”.

Q: What about the Activity (HCT-116 [28]) of the same compound?
A: The Activity was “Dose-Dependent Effect”.

Q: What about the Activity (HCT-116 [29]) of the same compound?
A: The Activity was “Active”.

Q: And the Activity (HCT-116 [30])?
A: Its Activity is “Active”.

Q: And the Activity (HCT-116 [31])?
A: Its Activity is “Active”.

Q: What about the Activity [32] of the same compound?
A: The Activity was “Non-Toxic”.

Q: What about the Activity [33] of the same compound?
A: Its Activity is “Non-Toxic”.

Q: What about the Activity [34] of the same compound?
A: Its Activity is “Non-Toxic”.

Q: What about the Activity [35] of the same compound?
A: Its Activity is “Non-Toxic”.

Q: And the Activity [36]?
A: The Activity was “Non-Toxic”.

From ChEMBL document CHEMBL5338710, “Discovery of dearomatized isoprenylated acylphloroglucinols with colon tumor suppressive activities in mice via inhibiting NFκB-FAT1-PDCD4 signaling activation” (Eur J Med Chem, 2022)
